Measurements as given in patent US10577363B2, “Substituted piperidine compounds” (EPIZYME, INC., priority 2014, dated 2020).

Columns and labels:
SMYD3 [1] = target: T1, SMYD3 (Homo sapiens (Human), UniProt Q9H7B4); experiment: SMYD3 cell assay (Trimethyl-MEKK2 In-Cell Western in 293T/17 cells); type: cell-based; conditions: read-out: SMYD3 Cell IC50 (μM)*
Excerpt: Trimethyl-MEKK2-in-Cell Western Assay
MEM/Glutamax medium, Optimem Reduced Serum medium, penicillin-streptomycin, 0.05% trypsin and 1×D-PBS were purchased from Life Technologies, Grand Island, N.Y., USA. PBS-10× was purchased from Ambion, Life Technologies, Grand Island, N.Y., USA. PBS with Tween 20 (PBST (10×)) was purchased from KPL, Gaithersburg, Md., USA. Tet System FBS-approved FBS US Source was purchased from Clontech, Mountain View, Calif., USA. Odyssey blocking buffer, 800CW goat anti-rabbit IgG (H+L) antibody, 680CW Goat anti-mouse IgG (H+L) and Licor Odyssey infrared scanner were purchased from Licor Biosciences, Lincoln, Nebr., USA. Tri-methyl-Lysine [A260]-MEKK2 antibody, MEKK2 and SMYD3 plasmids were made at Epizyme. Anti-flag monoclonal mouse antibody was purchased from Sigma, St. Louis, Mo., USA. Methanol was purchased from VWR, Franklin, Mass., USA. 10% Tween 20 was purchased from KPL, Inc., Gaithersburg, Md., USA. Fugene was purchased from Promega, Madison, Wis., USA. The Biotek ELx405 was purchased from BioTek, Winooski, Vt., USA. The multidrop combi was purchased from Thermo Scientific, Waltham, Mass., USA.
Cell Treatment, in Cell Western (ICW) for Detection of Trimethyl-Lysine-MEKK2 and MEKK2.
Plasmids were prepared for delivery to cells by first mixing 1350 μL Opti-MEM with Fugene (81 μL) in a sterile Eppendorf and incubated for five minutes at room temperature (RT). […] Entire volume of Opti-MEM/Fugene mixture was then added to a microfuge tube containing DNA plasmid, mixed and then incubated×15 minutes at RT. […] Medium was then removed, and cells were washed once with PBS in the flask. Trypsin 0.05% (3 mL) was added and cells incubated for three minutes. Room temperature MEM+10% Tet system FBS was added and cells were mixed gently, and counted using the Vi-cell. Cells were seeded at 100,000 cells/mL in 50 μL MEM/10% Tet FBS/Pen/Strep to a 384 well black/clear poly-D-lysine coated plate containing test agent diluted in DMSO. The final top concentration of test compound was 40 μM. […] Plates were incubated×30 minutes at RT in low-airflow area, followed by incubation at 37° C. under 5% CO2 for 24 hours. Medium was aspirated from all wells of assay plates prior to fixation and permeabilization with ice cold (−20° C.) methanol (90 μL/well) for ten minutes. Plates were rinsed with PBS three times on BioTek ELx405. PBS was removed with a final aspiration, and Odyssey blocking buffer (50 μL/well) was added to each well and incubated for one hour at RT. Primary antibody solution was prepared (anti-trimethyl-MEKK2 at 1:600 dilution plus mouse anti-flag antibody at 1:10,000 dilution in diluent (Odyssey Blocking buffer+0.1% Tween 20)) and 20 μL per well was dispensed using the Multidrop Combi. Assay plates were then sealed with foil, and incubated overnight at 4° C. Plates were washed five times with PBS-Tween (1×) on Biotek ELx405 and blotted on paper towel to remove excess reagent.
First, the ratio for each well was determined by:
Each plate included fourteen control wells of DMSO only treatment (Minimum Inhibition) as well as fourteen control wells for maximum inhibition (Background). The average of the ratio values for each control type was calculated and used to determine the percent inhibition for each test well in the plate. Reference compound was serially diluted two-fold in DMSO for a total of nine test concentrations, beginning at 40 μM.
Percent inhibition was calculated (below).
Non-linear regression curves were generated to calculate the IC50 and dose-response relationship using triplicate wells per concentration of compound.

SMYD3 [2] = target: T1, SMYD3; experiment: SMYD3 biochemical assay (SPA, 3H-SAM methylation of MEKK2 protein substrate); conditions: read-out: SMYD3 Biochem IC50 (μM)*
Method in brief: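 Tritium incorporation into GST-MEKK2 is counted by scintillation proximity after citric acid bead capture. Native human SMYD3 is preincubated with test compound for 30 min at room temperature at pH 8.0 (Tris-Cl, TCEP, BSG, Tween 20) before 3H-SAM and substrate are added; cold SAM at 100 uM final stops turnover.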

T1 sequence (Q9H7B4 whole entry): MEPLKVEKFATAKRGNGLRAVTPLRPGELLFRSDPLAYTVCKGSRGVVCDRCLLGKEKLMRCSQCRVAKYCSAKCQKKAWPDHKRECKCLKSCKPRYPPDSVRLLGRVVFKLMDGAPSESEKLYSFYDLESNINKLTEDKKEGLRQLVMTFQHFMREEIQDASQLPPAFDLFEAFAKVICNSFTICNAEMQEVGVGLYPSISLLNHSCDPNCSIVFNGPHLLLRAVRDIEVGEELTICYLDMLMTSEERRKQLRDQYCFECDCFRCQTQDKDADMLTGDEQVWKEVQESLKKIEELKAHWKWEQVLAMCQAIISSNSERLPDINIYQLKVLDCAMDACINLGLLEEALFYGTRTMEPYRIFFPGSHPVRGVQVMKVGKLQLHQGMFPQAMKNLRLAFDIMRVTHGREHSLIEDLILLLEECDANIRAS

Q: Which IC50 (SMYD3 [1]) does the source give for `C[C@@H]1CN(C(=O)CC2CCNCC2)CC[C@@H]1NC(=O)c1cc(C2CC2)on1` [compound 149, 5-cyclopropyl-N-((3R,4S)-3-methyl-1-(2-(piperidin-4-yl)acetyl)piperidin-4-yl)isoxazole-3-carboxamide] here?
A: 3.22 µM

Q: And the IC50 (SMYD3 [2])?
A: 0.291 µM

Q: Which results are given for `NC1CCC(C(=O)N2CCC(NC(=O)c3cc(C4CC4)on3)C3(CC3)C2)CC1` (stereo not drawn) [compound 156, N-(5-((1r,4r)-4-aminocyclohexane-1-carbonyl)-5-azaspiro[2.5]octan-8-yl)-5-cyclopropylisoxazole-3-carboxamide]?
A: IC50 (SMYD3 [1]): 1.76 µM; IC50 (SMYD3 [2]): 0.245 µM

Q: How did the IC50 (SMYD3 [1]) turn out when `C[C@@H]1CC(NC(=O)c2cc(C3CC3)on2)CCN1C(=O)C1CC2(CC(N)C2)C1` (stereo partly drawn) [compound 175, N-((2R)-1-(6-aminospiro[3.3]heptane-2-carbonyl)-2-methylpiperidin-4-yl)-5-cyclopropylisoxazole-3-carboxamide] was run?
A: 0.983 µM

Q: And the IC50 (SMYD3 [2])?
A: 0.274 µM

Q: For `C[C@H]1C[C@@H](NC(=O)c2cc(C3CC3)on2)CCN1S(=O)(=O)CCCN` [compound 187], which IC50 (SMYD3 [1]) is on record?
A: 0.831 µM

Q: What about the IC50 (SMYD3 [2]) of the same compound?
A: 0.00409 µM

Q: Which results are given for `C[C@@H]1C[C@H](NC(=O)c2cc(C3CC3)on2)CCN1S(=O)(=O)CCCN` [compound 189, N-((2R,4R)-1-((3-aminopropyl)sulfonyl)-2-methylpiperidin-4-yl)-5-cyclopropylisoxazole-3-carboxamide]?
A: IC50 (SMYD3 [1]): 1.24 µM; IC50 (SMYD3 [2]): 0.0559 µM

Q: How did the IC50 (SMYD3 [1]) turn out when `C[C@@H]1CC(NC(=O)c2cc(C3CC3)on2)CCN1C(=O)C12C3C4C1C1C2C3C41N` (stereo partly drawn) [compound 202, N-((2R)-1-(4-aminocubane-1-carbonyl)-2-methylpiperidin-4-yl)-5-cyclopropylisoxazole-3-carboxamide] was run?
A: 1.31 µM

Q: And the IC50 (SMYD3 [2])?
A: 0.142 µM

Q: With `NCCCS(=O)(=O)N1CCC(NC(=O)c2cc(C3CC3)on2)CC1` [compound 210, N-(1-((3-aminopropyl)sulfonyl)piperidin-4-yl)-5-cyclopropylisoxazole-3-carboxamide] as the compound, how does the IC50 (SMYD3 [1]) read?
A: 2.9 µM

Q: And the IC50 (SMYD3 [2])?
A: 0.321 µM

Q: How did the IC50 (SMYD3 [1]) turn out when `CC1(NC(=O)c2cc(C3CC3)on2)CCN(S(=O)(=O)CCCN)CC1` [compound 218, N-(1-((3-aminopropyl)sulfonyl)-4-methylpiperidin-4-yl)-5-cyclopropylisoxazole-3-carboxamide] was run?
A: 1.42 µM

Q: What about the IC50 (SMYD3 [2]) of the same compound?
A: 0.23 µM

Q: Which IC50 (SMYD3 [1]) does the source give for `CC1CC(NC(=O)c2cc(C3CC3)on2)CCN1C(=O)Cc1c[nH]cn1` (stereo not drawn) [compound 227, N-(1-(2-(1H-imidazol-4-yl)acetyl)-2-methylpiperidin-4-yl)-5-cyclopropylisoxazole-3-carboxamide] here?
A: > 40 µM

Q: And the IC50 (SMYD3 [2])?
A: > 10 µM

Q: How did the IC50 (SMYD3 [1]) turn out when `C[C@H]1C[C@@H](NC(=O)c2cc(C3CC3)on2)CCN1S(=O)(=O)CCc1ccccc1` [compound 235, 5-cyclopropyl-N-((2S,4S)-2-methyl-1-(phenethylsulfonyl)piperidin-4-yl)isoxazole-3-carboxamide] was run?
A: 3.3 µM

Q: And the IC50 (SMYD3 [2])?
A: 1.33 µM

Q: Which results are given for `C[C@H]1C[C@H](NC(=O)c2cc(C3CC3)on2)CCN1S(=O)(=O)Cc1ccccc1` [compound 244, N-((2S,4R)-1-(benzylsulfonyl)-2-methylpiperidin-4-yl)-5-cyclopropylisoxazole-3-carboxamide]?
A: IC50 (SMYD3 [1]): 14.1 µM; IC50 (SMYD3 [2]): > 10 µM

Q: For `CC1CN(C(=O)[C@H]2CC[C@H](N)CC2)C(C)CC1NC(=O)c1cc(C2CC2)on1` (stereo partly drawn) [compound 263, N-(1-((1r,4r)-4-aminocyclohexane-1-carbonyl)-2,5-dimethylpiperidin-4-yl)-5-cyclopropylisoxazole-3-carboxamide], which IC50 (SMYD3 [1]; 293T/17 cells) is on record?
A: 0.569 µM

Q: What about the IC50 (SMYD3 [2]) of the same compound?
A: 0.0322 µM

Q: For `NCCCC(=O)N1CC2CCC1CC2NC(=O)c1cc(C2CC2)on1` (stereo not drawn) [compound 265, N-(2-(4-aminobutanoyl)-2-azabicyclo[2.2.2]octan-5-yl)-5-cyclopropylisoxazole-3-carboxamide], which IC50 (SMYD3 [1]; 293T/17 cells) is on record?
A: > 40 µM

Q: And the IC50 (SMYD3 [2])?
A: 5.45 µM

Q: Which results are given for `C[C@H]1C[C@@H](NC(=O)c2cc(C3CC3)on2)CCN1C(=O)CC(CN)Cc1ccccc1` (stereo partly drawn) [compound 269, N-((2S,4S)-1-(4-amino-3-benzylbutanoyl)-2-methylpiperidin-4-yl)-5-cyclopropylisoxazole-3-carboxamide]?
A: IC50 (SMYD3 [1]; 293T/17 cells): > 40 µM; IC50 (SMYD3 [2]): > 10 µM

Q: What does the source list for `C[C@@H]1C[C@@H](NC(=O)c2cc(C3CC3)on2)CCN1C(=O)CC(CN)Cc1ccccc1` (stereo partly drawn) [compound 270, N-((2R,4S)-1-(4-amino-3-benzylbutanoyl)-2-methylpiperidin-4-yl)-5-cyclopropylisoxazole-3-carboxamide]?
A: IC50 (SMYD3 [1]; 293T/17 cells): > 40 µM; IC50 (SMYD3 [2]): > 10 µM

Q: `C[C@H]1C[C@H](NC(=O)c2cc(C3CC3)on2)CCN1C(=O)CC(CN)Cc1ccccc1` (stereo partly drawn) [compound 271, N-((2S,4R)-1-(4-amino-3-benzylbutanoyl)-2-methylpiperidin-4-yl)-5-cyclopropylisoxazole-3-carboxamide] was tested. Which IC50 (SMYD3 [1]; 293T/17 cells) did it give?
A: > 40 µM

Q: What about the IC50 (SMYD3 [2]) of the same compound?
A: > 10 µM

Q: What does the source list for `C[C@@H]1C[C@H](NC(=O)c2cc(C3CC3)on2)CCN1C(=O)CC(CN)Cc1ccccc1` (stereo partly drawn) [compound 272, N-((2R,4R)-1-(4-amino-3-benzylbutanoyl)-2-methylpiperidin-4-yl)-5-cyclopropylisoxazole-3-carboxamide]?
A: IC50 (SMYD3 [1]; 293T/17 cells): > 40 µM; IC50 (SMYD3 [2]): > 10 µM

Q: What does the source list for `C[C@H]1C[C@@H](NC(=O)c2cc(C3CC3)on2)CCN1S(=O)(=O)Cc1ccccc1` [compound 274, N-((2S,4S)-1-(benzylsulfonyl)-2-methylpiperidin-4-yl)-5-cyclopropylisoxazole-3-carboxamide]?
A: IC50 (SMYD3 [1]; 293T/17 cells): 1.42 µM; IC50 (SMYD3 [2]): 0.433 µM

Q: For `C[C@H]1C[C@@H](NC(=O)c2cc(C3CC3)on2)CCN1S(=O)(=O)c1ccccn1` [compound 275, 5-cyclopropyl-N-((2S,4S)-2-methyl-1-(pyridin-2-ylsulfonyl)piperidin-4-yl)isoxazole-3-carboxamide], which IC50 (SMYD3 [1]; 293T/17 cells) is on record?
A: 0.676 µM

Q: And the IC50 (SMYD3 [2])?
A: 0.154 µM

Q: Which IC50 (SMYD3 [1]; 293T/17 cells) does the source give for `C[C@@H]1C[C@@H](NC(=O)c2cc(C3CC3)on2)CCN1S(=O)(=O)c1cn(C)cn1` [compound 283, 5-cyclopropyl-N-((2R,4S)-2-methyl-1-((1-methyl-1H-imidazol-4-yl)sulfonyl)piperidin-4-yl)isoxazole-3-carboxamide] here?
A: > 40 µM

Q: And the IC50 (SMYD3 [2])?
A: > 10 µM

Q: For `C[C@H]1C[C@H](NC(=O)c2cc(C3CC3)on2)CCN1S(=O)(=O)c1ccccn1` [compound 286, 5-cyclopropyl-N-((2S,4R)-2-methyl-1-(pyridin-2-ylsulfonyl)piperidin-4-yl)isoxazole-3-carboxamide], which IC50 (SMYD3 [1]; 293T/17 cells) is on record?
A: 10.7 µM

Q: What about the IC50 (SMYD3 [2]) of the same compound?
A: > 10 µM

Q: What does the source list for `C[C@H]1C[C@H](NC(=O)c2cc(C3CC3)on2)CCN1S(=O)(=O)c1cn(C)cn1` [compound 291, 5-cyclopropyl-N-((2S,4R)-2-methyl-1-((1-methyl-1H-imidazol-4-yl)sulfonyl)piperidin-4-yl)isoxazole-3-carboxamide]?
A: IC50 (SMYD3 [1]; 293T/17 cells): > 40 µM; IC50 (SMYD3 [2]): > 10 µM

Q: For `C[C@@H]1C[C@H](NC(=O)c2cc(C3CC3)on2)CCN1S(=O)(=O)c1ccccn1` [compound 293, 5-cyclopropyl-N-((2R,4R)-2-methyl-1-(pyridin-2-ylsulfonyl)piperidin-4-yl)isoxazole-3-carboxamide], which IC50 (SMYD3 [1]; 293T/17 cells) is on record?
A: 7.19 µM

Q: And the IC50 (SMYD3 [2])?
A: 4.84 µM

Q: Which results are given for `C[C@@H]1C[C@H](NC(=O)c2cc(C3CC3)on2)CCN1S(=O)(=O)c1cn(C)cn1` [compound 294, 5-cyclopropyl-N-((2R,4R)-2-methyl-1-((1-methyl-1H-imidazol-4-yl)sulfonyl)piperidin-4-yl)isoxazole-3-carboxamide]?
A: IC50 (SMYD3 [1]; 293T/17 cells): > 40 µM; IC50 (SMYD3 [2]): > 10 µM
